Like-named read-outs stand apart in the source and are kept apart here.
Target: T1, IRAK4 (Homo sapiens, UniProt Q9NWZ3)
T1 construct: Degradation of IRAK4 in OCI-LY10 was quantitatively measured using Meso Scale Discovery technology; endogenous in cells; host or cells: OCI-LY10
T1 sequence (Q9NWZ3 1-460): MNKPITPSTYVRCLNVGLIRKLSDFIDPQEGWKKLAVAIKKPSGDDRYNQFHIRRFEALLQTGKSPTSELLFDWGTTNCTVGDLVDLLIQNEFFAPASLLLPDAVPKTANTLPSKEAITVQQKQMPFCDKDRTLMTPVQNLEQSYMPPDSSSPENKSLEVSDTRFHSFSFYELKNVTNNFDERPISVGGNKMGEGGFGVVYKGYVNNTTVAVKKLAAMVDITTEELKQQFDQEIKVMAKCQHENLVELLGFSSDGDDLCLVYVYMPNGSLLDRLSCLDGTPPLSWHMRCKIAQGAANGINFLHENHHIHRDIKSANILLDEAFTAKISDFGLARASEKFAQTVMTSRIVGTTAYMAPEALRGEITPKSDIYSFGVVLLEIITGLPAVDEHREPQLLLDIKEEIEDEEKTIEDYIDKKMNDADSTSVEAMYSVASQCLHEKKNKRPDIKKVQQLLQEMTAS
Assay: IRAK4 MSD Degradation in OCI-LY10
Assay type: cell-based
Settings: OCI-LY10 cells, MSD
Method in brief: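 OCI-LY10 cells exposed to 8-point 1:3 compound series (top 1 to 10 μM) for 4 to 24 h at 37 °C, 5% CO2. Lysate IRAK4 quantified by MSD sandwich immunoassay. DC50 from three-parameter logistic fit, binned A (<0.01 μM) to D (>0.2 μM or not tested).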

[1] = 4 hrs incubation, read-out: IRAK4 degradation in OCI-LY10 at 4 hrs: DC50
[2] = 24 hrs incubation, read-out: IRAK4 degradation in OCI-LY10 at 24 hrs: DC50

DC50 [1] [µM]	DC50 [2] [µM]	SMILES
> 0.2	> 0.2	Cn1c(=O)n(C2CCC(=O)NC2=O)c2cccc(C#CCN3CCN(C[C@H]4CC[C@H](n5cc(NC(=O)c6cnn7ccc([C@H]8CCOC8)nc67)c(C(F)F)n5)CC4)CC3)c21 (some centres unmarked) [I-354]
0.01 to 0.1	> 0.2	CN(C[C@H]1CC[C@H](n2cc(NC(=O)c3cnn4ccc(N5CC(C)(C)OC(C)(C)C5)nc34)c(C(F)F)n2)CC1)C1CCN(c2cccc3c2n(C)c(=O)n3C2CCC(=O)NC2=O)CC1 (some centres unmarked) [I-355]
> 0.2	< 0.01	CN(C[C@H]1CC[C@H](n2cc(NC(=O)c3cnn4ccc(N5CCOC6(CC6)C5)nc34)c(C(F)F)n2)CC1)C1CCN(c2cccc3c2n(C)c(=O)n3C2CCC(=O)NC2=O)CC1 (some centres unmarked) [I-356]
> 0.2	< 0.01	CN(C[C@H]1CC[C@H](n2cc(NC(=O)c3cnn4ccc(N5CCOC6(CCC6)C5)nc34)c(C(F)F)n2)CC1)C1CCN(c2cccc3c2n(C)c(=O)n3C2CCC(=O)NC2=O)CC1 (some centres unmarked) [I-357]
> 0.2	> 0.2	CC1CN(c2ccn3ncc(C(=O)Nc4cn([C@H]5CC[C@H](CN(C)C6CCN(c7cccc8c7n(C)c(=O)n8C7CCC(=O)NC7=O)CC6)CC5)nc4C(F)F)c3n2)CCO1 (some centres unmarked) [I-358]
> 0.2	> 0.2	CC1CN(c2ccn3ncc(C(=O)Nc4cn([C@H]5CC[C@H](CN(C)C6CCN(c7cccc8c7n(C)c(=O)n8C7CCC(=O)NC7=O)CC6)CC5)nc4C(F)F)c3n2)CC(C)O1 (some centres unmarked) [I-359]
> 0.2	< 0.01	CN(C[C@H]1CC[C@H](n2cc(NC(=O)c3cnn4ccc(N5C[C@H]6CC[C@@H](C5)O6)nc34)c(C(F)F)n2)CC1)C1CCN(c2cccc3c2n(C)c(=O)n3C2CCC(=O)NC2=O)CC1 (some centres unmarked) [I-360]
> 0.2	> 0.2	CN(C[C@H]1CC[C@H](n2cc(NC(=O)c3cnn4ccc(C5COC5)nc34)c(C(F)F)n2)CC1)C1CCN(c2cccc3c2n(C)c(=O)n3C2CCC(=O)NC2=O)CC1 (some centres unmarked) [I-361]
< 0.01	> 0.2	Cn1c(=O)n(C2CCC(=O)NC2=O)c2cccc([C@H]3CC[C@H](CN4CCN(C[C@H]5CC[C@H](n6cc(NC(=O)c7cnn8ccc(N9C[C@H]%10C[C@@H]9CO%10)nc78)c(C(F)F)n6)CC5)CC4)CC3)c21 (some centres unmarked) [I-362]
> 0.2	> 0.2	Cn1c(=O)n(C2CCC(=O)NC2=O)c2cccc(N3CC[C@@H](CN4CCN(C[C@H]5CC[C@H](n6cc(NC(=O)c7cnn8ccc(N9C[C@H]%10C[C@@H]9CO%10)nc78)c(C(F)F)n6)CC5)CC4)C3)c21 (some centres unmarked) [I-363]
> 0.2	> 0.2	Cn1c(=O)n(C2CCC(=O)NC2=O)c2cccc(N3CC[C@H](CN4CCN(C[C@H]5CC[C@H](n6cc(NC(=O)c7cnn8ccc(N9C[C@H]%10C[C@@H]9CO%10)nc78)c(C(F)F)n6)CC5)CC4)C3)c21 (some centres unmarked) [I-364]
> 0.2	> 0.2	Cn1c(=O)n(C2CCC(=O)NC2=O)c2cccc(N3CCN([C@@H]4CCN(C[C@H]5CC[C@H](n6cc(NC(=O)c7cnn8ccc(N9C[C@H]%10C[C@@H]9CO%10)nc78)c(C(F)F)n6)CC5)CC4(F)F)CC3)c21 (some centres unmarked) [I-365]
> 0.2	> 0.2	Cn1c(=O)n(C2CCC(=O)NC2=O)c2cccc(N3CCN([C@H]4CCN(C[C@H]5CC[C@H](n6cc(NC(=O)c7cnn8ccc(N9C[C@H]%10C[C@@H]9CO%10)nc78)c(C(F)F)n6)CC5)CC4(F)F)CC3)c21 (some centres unmarked) [I-366]
> 0.2	> 0.2	Cn1c(=O)n(C2CCC(=O)NC2=O)c2cccc(N3CCC(N4CCN(C[C@H]5CC[C@H](n6cc(NC(=O)c7cnn8ccc(N9C[C@H]%10C[C@@H]9CO%10)nc78)c(C(F)F)n6)CC5)CC4)CC3)c21 (some centres unmarked) [I-367]
> 0.2	> 0.2	Cn1c(=O)n(C2CCC(=O)NC2=O)c2cccc(N3CCC(N(C[C@H]4CC[C@H](n5cc(NC(=O)c6cnn7cccnc67)c(C(F)F)n5)CC4)C(F)(F)F)CC3)c21 (some centres unmarked) [I-368]
< 0.01	> 0.2	Cn1c(=O)n(C2CCC(=O)NC2=O)c2cccc(C#CCN3CCN(Cc4ccc(-n5cc(NC(=O)c6cnn7ccc(N8C[C@H]9C[C@@H]8CO9)nc67)c(C(F)F)n5)cc4)CC3)c21 (some centres unmarked) [I-369]
0.01 to 0.1	> 0.2	Cn1c(=O)n(C2CCC(=O)NC2=O)c2cccc(C#CCOC3CCN(Cc4ccc(-n5cc(NC(=O)c6cnn7ccc(N8C[C@H]9C[C@@H]8CO9)nc67)c(C(F)F)n5)cc4)CC3)c21 (some centres unmarked) [I-370]
> 0.2	> 0.2	Cn1c(=O)n(C2CCC(=O)NC2=O)c2cccc(C#CCOc3ccc(CN4CCC(n5cc(NC(=O)c6cnn7ccc(N8CC9C[C@@H]8CO9)nc67)c(C(F)F)n5)CC4)cc3)c21 (some centres unmarked) [I-371]
> 0.2	> 0.2	Cn1c(=O)n(C2CCC(=O)NC2=O)c2cccc(C#CCc3ccc(CN4CCC(n5cc(NC(=O)c6cnn7ccc(N8CC9C[C@@H]8CO9)nc67)c(C(F)F)n5)CC4)cc3)c21 (some centres unmarked) [I-372]

DC50 [1] [µM]	DC50 [2] [µM]	SMILES
> 0.2	> 0.2	CN(CC1CCN(c2cccc3c2n(C)c(=O)n3C2CCC(=O)NC2=O)CC1)c1ccc(-n2cc(NC(=O)c3cnn4cccnc34)c(C(F)F)n2)cc1 (centres unmarked) [I-373]
0.01 to 0.1	> 0.2	Cn1c(=O)n(C2CCC(=O)NC2=O)c2cccc(C#CCC3CCN(C[C@H]4CC[C@H](n5cc(NC(=O)c6cnn7ccc(N8C[C@H]9C[C@@H]8CO9)nc67)c(C(F)F)n5)CC4)CC3(F)F)c21 (some centres unmarked) [I-374]
> 0.2	> 0.2	Cn1c(=O)n(C2CCC(=O)NC2=O)c2cccc(C#CCN3CCC(C[C@H]4CC[C@H](n5cc(NC(=O)c6cnn7ccc(N8C[C@H]9C[C@@H]8CO9)nc67)c(C(F)F)n5)CC4)C(F)(F)C3)c21 (some centres unmarked) [I-375]
> 0.2	> 0.2	CN(C[C@H]1CC[C@H](n2cc(NC(=O)c3cnn4cccnc34)c(C(F)F)n2)CC1)C1CCN(c2cccc3c2n(C)c(=O)n3C2CCC(=O)NC2=O)CC1(F)F (some centres unmarked) [I-376]
> 0.2	> 0.2	CN(Cc1ccc(-n2cc(NC(=O)c3cnn4cccnc34)c(C(F)F)n2)cc1)C1CCN(c2cccc3c2n(C)c(=O)n3C2CCC(=O)NC2=O)CC1(F)F (centres unmarked) [I-377]
> 0.2	> 0.2	CN(C[C@H]1CC[C@H](n2cc(NC(=O)c3cnn4cccnc34)c(C(F)F)n2)CC1)c1ccc(-c2cccc3c2n(C)c(=O)n3C2CCC(=O)NC2=O)cc1 (some centres unmarked) [I-378]
> 0.2	> 0.2	Cn1c(=O)n(C2CCC(=O)NC2=O)c2cccc(C#CC[C@H]3CN(CC4CCC(n5cc(NC(=O)c6cnn7ccc(N8C[C@H]9C[C@@H]8CO9)nc67)c(C(F)F)n5)CC4)CCO3)c21 (some centres unmarked) [I-379]
> 0.2	> 0.2	Cn1c(=O)n(C2CCC(=O)NC2=O)c2cccc(C#CC[C@H]3CN(Cc4ccc(-n5cc(NC(=O)c6cnn7ccc(N8C[C@H]9C[C@@H]8CO9)nc67)c(C(F)F)n5)cc4)CCO3)c21 (some centres unmarked) [I-380]
> 0.2	> 0.2	Cn1c(=O)n(C2CCC(=O)NC2=O)c2cccc(C[C@H]3CN(C[C@H]4CC[C@H](n5cc(NC(=O)c6cnn7cccnc67)c(C(F)F)n5)CC4)CCO3)c21 (some centres unmarked) [I-381]
> 0.2	> 0.2	Cn1c(=O)n(C2CCC(=O)NC2=O)c2cccc(C[C@H]3CN(Cc4ccc(-n5cc(NC(=O)c6cnn7cccnc67)c(C(F)F)n5)cc4)CCO3)c21 (some centres unmarked) [I-382]
> 0.2	> 0.2	Cn1c(=O)n(C2CCC(=O)NC2=O)c2cccc(C[C@H]3CN(Cc4ccc(-n5cc(NC(=O)c6cnn7ccc(N8C[C@H]9C[C@@H]8CO9)nc67)c(C(F)F)n5)cc4)CCO3)c21 (some centres unmarked) [I-384]
< 0.01	> 0.2	Cn1c(=O)n(C2CCC(=O)NC2=O)c2cccc(CC[C@H]3CN(C[C@H]4CC[C@H](n5cc(NC(=O)c6cnn7ccc(N8C[C@H]9C[C@@H]8CO9)nc67)c(C(F)F)n5)CC4)CCO3)c21 (some centres unmarked) [I-385]
> 0.2	> 0.2	Cn1c(=O)n(C2CCC(=O)NC2=O)c2cccc(CC[C@H]3CN(Cc4ccc(-n5cc(NC(=O)c6cnn7ccc(N8C[C@H]9C[C@@H]8CO9)nc67)c(C(F)F)n5)cc4)CCO3)c21 (some centres unmarked) [I-386]
< 0.01	> 0.2	Cn1c(=O)n(C2CCC(=O)NC2=O)c2cccc(CC[C@H]3CN(C[C@H]4CC[C@H](n5cc(NC(=O)c6cnn7cccnc67)c(C(F)F)n5)CC4)CCO3)c21 (some centres unmarked) [I-387]
> 0.2	> 0.2	Cn1c(=O)n(C2CCC(=O)NC2=O)c2cccc(CC[C@H]3CN(Cc4ccc(-n5cc(NC(=O)c6cnn7cccnc67)c(C(F)F)n5)cc4)CCO3)c21 (some centres unmarked) [I-388]
0.01 to 0.1	> 0.2	Cn1c(=O)n(C2CCC(=O)NC2=O)c2cccc(C#CC[C@@H]3CN(C[C@H]4CC[C@H](n5cc(NC(=O)c6cnn7ccc(N8C[C@H]9C[C@@H]8CO9)nc67)c(C(F)F)n5)CC4)CCO3)c21 (some centres unmarked) [I-389]
> 0.2	> 0.2	Cn1c(=O)n(C2CCC(=O)NC2=O)c2cccc(C#CC[C@@H]3CN(Cc4ccc(-n5cc(NC(=O)c6cnn7ccc(N8C[C@H]9C[C@@H]8CO9)nc67)c(C(F)F)n5)cc4)CCO3)c21 (some centres unmarked) [I-390]
> 0.2	> 0.2	Cn1c(=O)n(C2CCC(=O)NC2=O)c2cccc(C[C@@H]3CN(C[C@H]4CC[C@H](n5cc(NC(=O)c6cnn7cccnc67)c(C(F)F)n5)CC4)CCO3)c21 (some centres unmarked) [I-391]
